# Reference: PubChem BioAssay AID1645848
# Conditions: buffer; pH 7.4; 6.0 h; 150.0 µM
row,SMILES,solubility kinetic
1,CC(C)OC(=O)c1ccnc2cc(C(OCCN3CCCCC3)c3ccccc3Cl)sc12 (stereo unspecified),16.6 µg/mL
2,COc1nccc(-c2nc(Nc3ccc(F)c(F)c3)c3ccccc3n2)c1Cl,< 1 µg/mL
3,Cc1ccc(NC2=C(c3ccc(C(F)(F)F)cc3)C(=O)c3ccccc32)cc1C,< 1 µg/mL
4,Fc1cc(Nc2nc(-c3ccncc3)nc3ccccc23)ccc1-c1ccc2[nH]ncc2c1,< 1 µg/mL
5,O=C(CCc1ccccc1)Nc1ccc(S(=O)(=O)Nc2nccs2)cc1,10.6 µg/mL
6,NC(=O)C1CCN(c2nccc(-c3ccc4c(c3)OCCO4)n2)CC1,> 50 µg/mL
7,COc1ccc2c(c1)N(C[C@H](C)CN(C)C)c1ccccc1S2,> 48 µg/mL
8,CC(C)(C)c1cc(NC(=O)Nc2ccc(-c3cn4c(n3)sc3cc(OCCN5CCOCC5)ccc34)cc2)no1,< 1 µg/mL
9,COc1cccc(CNc2ccc(S(=O)(=O)Nc3ccc(N4CCNCC4)cc3)cc2)c1O,58.3 µg/mL
10,Cc1cccc(C)c1C(=O)Nc1cccc([S+](=O)([O-])N2CCCCCC2)c1,2.03 µg/mL
11,CCN1CCCC1CNC(=O)c1cc(S(=O)(=O)CC)c(N)cc1OC (stereo unspecified),36.2 µg/mL
12,CCOC(=O)c1csc(NC(=O)c2ccncc2NS(=O)(=O)c2ccc(C)cc2)n1,3.2 µg/mL
13,Cc1nnc(-c2ccccc2C(C)C)nc1NCc1ccc(-c2cccnc2)cc1,< 1 µg/mL
14,CC[C@@]1(O)C(=O)OCc2c1cc1n(c2=O)Cc2c-1nc1ccccc1c2CCNC(C)C,> 6 µg/mL
15,O=C(Nc1ccc(Cl)c(S(=O)(=O)N2CCOCC2)c1)c1ccc(S(=O)(=O)N2CCOCC2)cc1,< 1 µg/mL
16,COc1cc(NS(=O)(=O)c2ccc(C)cc2)cc(C(=O)Nc2nc(-c3ccccc3)cs2)c1,< 1 µg/mL
17,Cc1c(C)n(Cc2ccccc2)c2ccc(C(=O)OCCN(C)C)cc12,33 µg/mL
18,Nc1ncnc(N2CCc3ccccc32)c1[N+](=O)[O-],< 1 µg/mL
19,Cc1cn2c(-c3cn[nH]c3)cnc2c(Nc2ccc(C(=O)N3CCNCC3)cc2F)n1,13.4 µg/mL
20,COc1ccc(C2c3c(ncn(CCN4CCOCC4)c3=N)Oc3ccc4ccccc4c32)cc1OC (stereo unspecified),4.21 µg/mL
21,CC(=O)Nc1ncc(S(=O)(=O)Nc2cnccc2C(=O)Nc2nc(-c3ccccc3)cs2)s1,56.1 µg/mL
22,COc1ccc(C(=O)NC2CCN(c3cnn(CC4CC4)c(=O)c3)CC2)cc1,8.61 µg/mL
23,O=C(NC1CC1)c1nc(-c2cccnc2)c2cnccn12,31.6 µg/mL
24,COc1cccc(CNc2ccc(S(=O)(=O)Nc3ccccc3)cc2)c1O,< 1 µg/mL

row,SMILES,solubility kinetic
1,COc1ccc(CN2CCN(C(=O)c3cc4c(s3)CCC4)CC2)cc1,> 53 µg/mL
2,Cc1cnc(CNc2nc(-c3cccc(NS(C)(=O)=O)c3)nc3ccccc23)cn1,44 µg/mL
3,CCOc1ccc(CCNC(=O)c2cc3ccccc3n2C)cc1OCC,1.63 µg/mL
4,CCCCNC(=O)CN1CCN(c2ncc(NC(=O)c3ccc(Cl)cc3)cc2C(=O)O)CC1,> 70 µg/mL
5,O=C(NC1CCCc2c1[nH]c1c(Cl)cccc21)c1ccc2c(c1)OCO2 (stereo unspecified),< 1 µg/mL
6,O=C(Nc1nc(-c2ccccc2)cs1)c1ccncc1NS(=O)(=O)c1cccnc1,> 65 µg/mL
7,Cc1cnc(-c2ccccc2C(C)C)nc1NCC1CCN(c2cccnc2)CC1,< 1 µg/mL
8,O=S(=O)(Nc1nccs1)c1ccc(NCc2cc(Cl)ccc2O)cc1,37.2 µg/mL
9,Cc1ccc(NC(=O)CSc2ncc(S(=O)(=O)c3ccc(C(C)C)cc3)c(=O)[nH]2)cc1C,> 70 µg/mL
10,Cc1ccc(CNCc2cn[nH]c2-c2ccc(C)cc2)cc1,30 µg/mL
11,CC1=C(C(=O)NC2CCCCC2)C(c2ccccc2Br)N=C(Nc2nc3ccccc3o2)N1 (stereo unspecified),< 1 µg/mL
12,Cc1noc(C)c1-c1cc2c(cc(C)n2C)c(-c2cnn(C)c2)n1,15.2 µg/mL
13,CN(C(=O)CNC(=O)c1cc(F)ccc1OCC(=O)Nc1ccc(I)cc1)c1ccc(F)cc1,< 1 µg/mL
14,N#Cc1cccc(NC(=O)c2sc3nc4c(cc3c2N)N2CCC4CC2)c1,5.07 µg/mL
15,CCCS(=O)(=O)c1nc(NC2CC2)cc(-c2ccc3c(ccn3C3CC(C)(C)NC(C)(C)C3)c2)n1,< 1 µg/mL
16,Oc1ccc(CNc2ccccc2Br)c2cccnc12,8.3 µg/mL
17,COc1ccc(-n2nc(C3CCCN(C(=O)Cc4ccccn4)C3)[nH]c2=O)cc1 (stereo unspecified),> 58 µg/mL
18,COc1ccccc1C(=O)NC1CCCc2c1[nH]c1c(Cl)cccc21 (stereo unspecified),< 1 µg/mL
19,Cc1cccc(-n2cnc3cc(C(=O)N4CCCC(C)C4)ccc32)c1 (stereo unspecified),26.4 µg/mL
20,CCC(Sc1nc2ccccc2c2nc(CCc3c(C)n[nH]c3C)nn12)C(=O)Nc1ccc(F)cc1 (stereo unspecified),< 1 µg/mL
21,CC(C)(O)CNc1nc(Nc2ccnc(C(F)(F)F)c2)nc(-c2cccc(C(F)(F)F)n2)n1,11 µg/mL
22,Cc1cn2nc(-c3nc(C4CCCN(C(=O)c5ccccc5)C4)no3)cc2c(=O)[nH]1 (stereo unspecified),27.5 µg/mL
23,COc1cccc(CNCCSc2nnnn2C)c1OCc1ccc(Cl)cc1Cl,16.6 µg/mL
24,CNc1oc(-c2ccccc2-c2ccccc2)nc1C#N,1.21 µg/mL

row,SMILES,solubility kinetic
1,O=C(c1ccc2c(c1)ncn2-c1cccc(Cl)c1)N1CCCCC1,> 50 µg/mL
2,Nc1ncnc2c1C(=O)N(c1ccc(C3CCC(CC(=O)O)CC3)cc1)CCO2 (stereo unspecified),> 59 µg/mL
3,Cc1ccc(S(=O)(=O)Nc2cnccc2C(=O)Nc2nc(-c3ccc(Cl)c(Cl)c3)cs2)cc1,0.578 µg/mL
4,O=C(NCc1ccncc1)c1nc(-c2cccnc2)c2cnccn12,40.8 µg/mL
5,COc1ccc(C2Nc3ccccc3C(=O)N2Cc2ccco2)cc1 (stereo unspecified),12.2 µg/mL
6,COC(=O)[C@@]12OC[C@]34[C@H]([C@@H](O)[C@@H]1O)[C@@]1(C)CC(=O)C(O)=C(C)[C@@H]1C[C@H]3OC(=O)[C@H](OC(=O)/C=C(\C)C(C)C)[C@@H]24,> 81 µg/mL
7,Cn1cc(C2=C(c3cn(CCCSC(=N)N)c4ccccc34)C(=O)NC2=O)c2ccccc21,19.2 µg/mL
8,N#Cc1ccc(S(=O)(=O)Nc2cnccc2C(=O)Nc2nc(-c3ccccc3)cs2)cc1,6.96 µg/mL
9,CC(Nc1ncnc2c1cnn2-c1cccc(Cl)c1)c1ccccc1 (stereo unspecified),< 1 µg/mL
10,CN1CCN(c2ccc(Nc3c4ccccc4nc4ccccc34)cc2)CC1,> 54 µg/mL
11,COc1cc([C@@H]2c3cc4c(cc3[C@H](O)[C@H]3COC(=O)[C@H]23)OCO4)cc(OC)c1OC,> 61 µg/mL
12,CN(C)CCNC(=O)c1nc(-c2ccccc2)cc2[nH]ccc12,28.3 µg/mL
13,NC(=O)C1CCN(c2nc(-c3ccc(F)cc3)cs2)CC1,> 45 µg/mL
14,O=[S+]([O-])(Nc1ccc(-c2ccccc2)cc1)c1ccc(NCc2ccc(Cl)cc2O)cc1,< 1 µg/mL
15,CCOc1ccc(CCNC(=O)c2cc3sccc3n2CCN2CCOCC2)cc1OCC,52.4 µg/mL
16,N#Cc1cccc(S(=O)(=O)Nc2cnccc2C(=O)Nc2nc(-c3ccccc3)cs2)c1,34.3 µg/mL
17,CCOC(=O)c1c(C)c(-c2ccccc2)n(CC(=O)NCc2ccccc2)c1C,< 1 µg/mL
18,CC(=O)c1c(C)oc2ccc(N(C(=O)Oc3ccccc3)S(=O)(=O)c3ccccc3)cc12,< 1 µg/mL
19,Cc1nc([N+](=O)[O-])cn1-c1ccc([N+](=O)[O-])cc1,> 37 µg/mL
20,CCOc1ccc(CCNC(=O)c2ccccc2)cc1OCC,29.2 µg/mL
21,Fc1ccc(Nc2nc(Nc3ccncc3)nc3ccccc23)cc1F,2.19 µg/mL
22,Cc1c(-c2cccc(NC(=O)c3ccc(F)c(F)c3)c2)nc2ncccn12,7.47 µg/mL
23,Cc1cnc(-c2ccccc2C(C)C)nc1NCc1ccc(-n2ccnn2)cc1,6.61 µg/mL
